According to PMC10108345, “Differentiating Inhibition Selectivity and Binding Affinity of Isocitrate Dehydrogenase 1 Variant Inhibitors” (Journal of Medicinal Chemistry, 2023):

How the values were obtained:
wt IDH1 [1] = target: T1, wt IDH1 (Homo sapiens, UniProt O75874); assay: Circular dichroism (CD) melting temperature, wt IDH1; type: binding; details: inhibitor 42 μM, IDH 4.2 μM (0.2 mg/mL); read-out: Δ Tm/°C by CD wt IDH1
T1 construct: made in house; host or cells: Escherichia coli BL21(DE3) pLyS
Protocol: CD spectra were acquired using a Chirascan CD spectrometer (Applied Photophysics) with a Peltier temperature-control cell holder. Experiments were carried out in a 0.1 cm path length quartz cuvette at 20 °C. […] Spectra were averaged (n = 3) and smoothed (window size = 7) using the Savitzky–Golay filter. The mean residue ellipticity (MRE) was calculated according to the formula [drawing 1] where θ is the degree of ellipticity, N is the number of amino acids, c is the concentration (mol/L), and l is the path length (cm).
Measurements were conducted in 2 °C increments. The melting temperature was calculated using a Boltzmann sigmoidal model in GraphPad Prism v5.04.

wt IDH1 [2] = target: T1, wt IDH1; assay: Ligand-observed 1H NMR (CPMG-edited, 700 MHz) binding, wt IDH1; details: line broadening, 10 μM inhibitor, 50 mM tris-D11-HCl pH 7.5
Protocol: Additional solvent presaturation was applied for 2 s. Samples contained 160 μL of 10 μM compound (0.2% DMSO) in 50 mM tris-D11-HCl, pH 7.5 in 90% H2O/10% D2O (v/v). […] 200 or 400 scans per IDH concentration were recorded, and signals corresponding to the compound were integrated and processed using TopSpin 3.6.1 software.

IDH1 R132H [3] = target: T2, IDH1 R132H (Homo sapiens, UniProt O75874, R132H); assay: Isothermal titration calorimetry (ITC), IDH1 R132H; type: binding; details: 40 μM IDH1, 50 mM tris-HCl pH 7.5, 25 °C
T2 construct: made in house; host or cells: Escherichia coli BL21(DE3) pLyS
Protocol: (§1) ITC was conducted using a Malvern MicroCal PEAQ-ITC Automated machine (Malvern Panalytical). In general, IDH1 was prepared in 50 mM tris–HCl, pH 7.5, and the compounds were dissolved in the same buffer. 400 μL of cell solution containing 40 μM IDH1 [4% (v/v) DMSO] and 200 μL of the titrant containing 200 or 400 μM compound [2% or 4% (v/v) DMSO] were transferred to an ITC plate (Malvern Panalytical WEL020854-010). […] The injection setup consisted of 19 injections, with 1 initial injection of 0.4 μL and 18 subsequent injections of 2.0 μL each with 150 s between the injections. Thermodynamic parameters were obtained using MicroCal PEAQ-ITC analysis software.

IDH1 R132H [4] = target: T2, IDH1 R132H; assay: Non-denaturing MS binding, IDH1 R132H; details: Figure S7b
Protocol: Non-denaturing mass spectra were obtained using a quadrupole time-of-flight mass spectrometer (Synapt HD MS, Waters, Manchester, UK).[44],[45] […] Protein concentrations were measured using a Nanodrop spectrometer (Thermo Scientific NanoDrop One). Compounds were dissolved in MeOH to avoid DMSO interference with mass spectra. IDH1 (20 μL of 50 μM final) and the compound of interest (1–4% (v/v) MeOH) in 200 mM ammonium acetate at pH 7.5 were pipetted into wells of a sample plate of an automated chip-based nano-electrospray ion source (TriVersa Nanomate, Advion, Ithaka, NY, USA). Compounds were serially diluted in buffer and mixed with IDH1 diluted in buffer. The mixture was sprayed through a nozzle in a Nanomate chip at a spray voltage of 1.8–2.0 kV (spray backing gas pressure 0.8–1.0 psi, inlet pressure 3.8 mbar). […] Data collection and analyses used Waters MassLynx software. Mass spectra were calibrated externally using CsI solution. KD values were calculated using eq 2 as reported[46] at each compound concentration and are reported as an average across multiple concentrations. For inhibitors with a binding stoichiometry of two inhibitors/IDH dimer, the inhibitor-bound protein peak intensity used was a sum of first and second inhibitor-bound protein peak intensities. Data for the IDH1 dimer m/z = 20^+ charge state are shown. For clarity, only 2× NADPH bound protein peaks are annotated.

wt IDH1 [5] = target: T1, wt IDH1; assay: Isothermal titration calorimetry (ITC), wt IDH1; type: binding; details: 40 μM IDH1, 50 mM tris-HCl pH 7.5, 25 °C
Protocol: as §1

T1 sequence (O75874 whole entry): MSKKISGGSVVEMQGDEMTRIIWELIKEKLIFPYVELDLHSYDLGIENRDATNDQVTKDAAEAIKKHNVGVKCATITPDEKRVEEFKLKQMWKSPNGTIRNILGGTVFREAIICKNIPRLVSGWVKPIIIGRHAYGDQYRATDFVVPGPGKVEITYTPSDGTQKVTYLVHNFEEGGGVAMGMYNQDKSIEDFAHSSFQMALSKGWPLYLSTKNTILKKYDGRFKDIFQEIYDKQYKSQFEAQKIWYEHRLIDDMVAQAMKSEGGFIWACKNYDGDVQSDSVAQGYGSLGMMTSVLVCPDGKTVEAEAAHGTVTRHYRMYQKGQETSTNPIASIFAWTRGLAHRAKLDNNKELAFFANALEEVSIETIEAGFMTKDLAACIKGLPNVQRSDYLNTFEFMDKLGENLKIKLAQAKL
T2 sequence (O75874 whole entry R132H): as the sequence (O75874 whole entry) above, with R132H counted along it

ΔTm at 42 µM (wt IDH1 [1]): 2.9 °C
Kd (wt IDH1 [2]): 9.1 µM
Kd (IDH1 R132H [3]): > 400 µM
stoichiometry, inhibitors per IDH1 dimer, IDH1 R132H (IDH1 R132H [4]): 1
Kd (wt IDH1 [5]): > 400 µM
SMILES: Cc1ccccc1C(C(=O)NC1CCCCC1)N(C(=O)Cn1ccnc1C)c1cccc(F)c1 (centres unmarked) [AGI-5198]
